According to patent US20110130432A1, “Heterocyclic Carboxamides For Use As Thrombin Inhibitors” (ASTRAZENECA AB, priority 2008, published 2011):

These molecules were tested against T1, Human α-thrombin (Homo sapiens, UniProt P00734) (assay: Test A: Determination of Thrombin Inhibition with a Chromogenic, Robotic Assay). Conditions: chromogenic substrate S-2366 0.30 mmol/L, α-thrombin 0.020 NIHU/mL, 40 minutes incubation at 37° C.
T1 construct: Human α-thrombin; purchased Sigma Chemical Co. or Hematologic Technologies
Format: biochemical
Description: Determination of Thrombin Inhibition with a Chromogenic, Robotic Assay
The thrombin inhibitor potency is measured with a chromogenic substrate method, in a Plato 3300 robotic microplate processor (Rosys AG, CH-8634 Hombrechtikon, Switzerland), using 96-well, half volume microtitre plates (Costar, Cambridge, Mass., USA; Cat No 3690). Stock solutions of test substance in DMSO (72 μL), 0.1-1 mmol/L, are diluted serially 1:3 (24+48 μL) with DMSO to obtain ten different concentrations, which are analyzed as samples in the assay. 2 μL of test sample is diluted with 124 μL assay buffer, 12 μL of chromogenic substrate solution (S-2366, Chromogenix, Mölndal, Sweden) in assay buffer and finally 12 μL of α-thrombin solution (Human α-thrombin, Sigma Chemical Co. or Hematologic Technologies) in assay buffer, are added, and the samples mixed. The final assay concentrations are: test substance […], S-2366 0.30 mmol/L, α-thrombin 0.020 NIHU/mL The linear absorbance increment during 40 minutes incubation at 37° C. is used for calculation of percentage inhibition for the test samples, as compared to blanks without inhibitor. The IC50 value, corresponding to the inhibitor concentration which causes 50% inhibition of the thrombin activity, is calculated from a log concentration vs. % inhibition curve.

| IC50 | SMILES |
| --- | --- |
| 34 nM | O=C(NCc1cc(Cl)ccc1-n1cnnn1)[C@@H]1CC=NN1C(=O)C(O)c1cccc(F)c1F (stereo partly drawn) [Example 2, (5S)—N-[5-Chloro-2-(1H-tetrazol-1-yl)benzyl]-1-[(2,3-difluorophenyl)(hydroxy)acetyl]-4,5-dihydro-1H-pyrazole-5-carboxamide] |
| 18 nM | O=C(NCc1cc(Cl)ccc1-n1cnnn1)[C@@H]1CC=NN1C(=O)C(O)c1cc(F)cc(F)c1 (stereo partly drawn) [Example 4, (5S)—N-[5-Chloro-2-(1H-tetrazol-1-yl)benzyl]-1-[(3,5-difluorophenyl)(hydroxy)acetyl]-4,5-dihydro-1H-pyrazole-5-carboxamide] |
| 24 nM | O=C(NCc1cc(Cl)ccc1-n1cnnn1)[C@@H]1CC=NN1C(=O)[C@H](O)C1CCCC1 [Example 5, (5S)—N-[5-Chloro-2-(1H-tetrazol-1-yl)benzyl]-1-[(2R)-2-cyclopentyl-2-hydroxyacetyl]-4,5-dihydro-1H-pyrazole-5-carboxamide] |
| 35 nM | O=C(NCc1cc(Cl)ccc1-n1cnnn1)[C@@H]1CC=NN1C(=O)C(O)c1ccc(F)cc1F (stereo partly drawn) [Example 6, (5S)—N-[5-Chloro-2-(1H-tetrazol-1-yl)benzyl]-1-[(2,4-difluorophenyl)(hydroxy)acetyl]-4,5-dihydro-1H-pyrazole-5-carboxamide] |
| 3.5 nM | CC(C)(C)C[C@@H](N)C(=O)N1N=CC[C@H]1C(=O)NCc1cc(Cl)ccc1-n1cnnn1 [Example 18, (5S)—N-[5-Chloro-2-(1H-tetrazol-1-yl)benzyl]-1-(4-methyl-D-leucyl)-4,5-dihydro-1H-pyrazole-5-carboxamide] |
| 31 nM | O=C(NCc1cc(Cl)ccc1-n1cnnn1)[C@@H]1CC=NN1C(=O)[C@H](O)CC1CC1 [Example 19, (5S)—N-[5-Chloro-2-(1H-tetrazol-1-yl)benzyl]-1-[(2R)-3-cyclopropyl-2-hydroxypropanoyl]-4,5-dihydro-1H-pyrazole-5-carboxamide] |
| 193 nM | CC(=O)O[C@@H](C(=O)N1N=CC[C@H]1C(=O)NCc1cc(Cl)ccc1-n1cnnn1)c1ccc(F)cc1 [Example 23, [(1R)-2-[(5S)-5-[[5-Chloro-2-(tetrazol-1-yl)phenyl]methylcarbamoyl]-4,5-dihydropyrazol-1-yl]-1-(4-fluorophenyl)-2-oxo-ethyl]acetate] |
| 140 nM | CC(C)CC(=O)O[C@@H](C(=O)N1N=CC[C@H]1C(=O)NCc1cc(Cl)ccc1-n1cnnn1)c1ccc(F)cc1 [Example 24, (1R)-2-[(5S)-5-{[5-Chloro-2-(1H-tetrazol-1-yl)benzyl]carbamoyl}-4,5-dihydro-1H-pyrazol-1-yl]-1-(4-fluorophenyl)-2-oxoethyl 3-methylbutanoate] |
| 160 nM | CCCC(=O)O[C@@H](C(=O)N1N=CC[C@H]1C(=O)NCc1cc(Cl)ccc1-n1cnnn1)c1ccc(F)cc1 [Example 25, (1R)-2-[(5S)-5-{[5-Chloro-2-(1H-tetrazol-1-yl)benzyl]carbamoyl}-4,5-dihydro-1H-pyrazol-1-yl]-1-(4-fluorophenyl)-2-oxoethyl butanoate] |
| 150 nM | CC(C)C(=O)O[C@@H](C(=O)N1N=CC[C@H]1C(=O)NCc1cc(Cl)ccc1-n1cnnn1)c1ccc(F)cc1 [Example 26, (1R)-2-[(5S)-5-{[5-Chloro-2-(1H-tetrazol-1-yl)benzyl]carbamoyl}-4,5-dihydro-1H-pyrazol-1-yl]-1-(4-fluorophenyl)-2-oxoethyl 2-methylpropanoate] |
| 140 nM | CCCCC(=O)O[C@@H](C(=O)N1N=CC[C@H]1C(=O)NCc1cc(Cl)ccc1-n1cnnn1)c1ccc(F)cc1 [Example 27, (1R)-2-[(5S)-5-{[5-Chloro-2-(1H-tetrazol-1-yl)benzyl]carbamoyl}-4,5-dihydro-1H-pyrazol-1-yl]-1-(4-fluorophenyl)-2-oxoethyl pentanoate] |
| 13 nM | O=C(O[C@@H](C(=O)N1N=CC[C@H]1C(=O)NCc1cc(Cl)ccc1-n1cnnn1)c1ccc(F)cc1)c1ccccc1 [Example 29, (1R)-2-[(5S)-5-{[5-Chloro-2-(1H-tetrazol-1-yl)benzyl]carbamoyl}-4,5-dihydro-1H-pyrazol-1-yl]-1-(4-fluorophenyl)-2-oxoethyl benzoate] |
| 660 nM | CCC(=O)Oc1cc(C)cc(C)c1C(C)(C)CC(=O)O[C@@H](C(=O)N1N=CC[C@H]1C(=O)NCc1cc(Cl)ccc1-n1cnnn1)c1ccc(F)cc1 [Example 30, (R)-2-((S)-5-(5-Chloro-2-(1H-tetrazol-1-yl)benzylcarbamoyl)-4,5-dihydro-1H-pyrazol-1-yl)-1-(4-fluorophenyl)-2-oxoethyl 3-(2,4-dimethyl-6-(propionyloxy)phenyl)-3-methylbutanoate] |
| 9.7 nM | O=C(NCc1cc(Cl)ccc1-n1cnnn1)[C@@H]1CCON1C(=O)[C@H](O)c1ccc(F)cc1 [Example 31, (3S)—N-[5-Chloro-2-(1H-tetrazol-1-yl)benzyl]-2-[(2R)-2-(4-fluorophenyl)-2-hydroxyacetyl]isoxazolidine-3-carboxamide] |
| 170 nM | CC(C)(C)OC[C@@H](N)C(=O)N1OCC[C@H]1C(=O)NCc1cc(Cl)ccc1-n1cnnn1 [Example 32, (3S)-2-(O-tert-Butyl-D-seryl)-N-[5-chloro-2-(1H-tetrazol-1-yl)benzyl]isoxazolidine-3-carboxamide] |
| 100 nM | O=C(NCc1cc(Cl)ccc1-n1cnnn1)[C@@H]1CCON1C(=O)C(O)c1ccc(F)cc1F (stereo partly drawn) [Example 33, (3S)—N-[5-Chloro-2-(1H-tetrazol-1-yl)benzyl]-2-[(2,4-difluorophenyl)(hydroxy)acetyl]isoxazolidine-3-carboxamide] |
| 160 nM | O=C(NCc1cc(Cl)ccc1-n1cnnn1)[C@@H]1CCON1C(=O)C(O)c1cccc(F)c1F (stereo partly drawn) [Example 34, (3S)—N-[5-Chloro-2-(1H-tetrazol-1-yl)benzyl]-2-[(2,3-difluorophenyl)(hydroxy)acetyl]isoxazolidine-3-carboxamide] |
| 70 nM | O=C(NCc1cc(Cl)ccc1-n1cnnn1)[C@@H]1CCON1C(=O)C(O)c1cc(F)cc(F)c1 (stereo partly drawn) [Example 35, (3S)—N-[5-Chloro-2-(1H-tetrazol-1-yl)benzyl]-2-[(3,5-difluorophenyl)(hydroxy)acetyl]isoxazolidine-3-carboxamide] |
| 94 nM | O=C(NCc1cc(Cl)ccc1-n1cnnn1)[C@@H]1CCON1C(=O)C(O)c1ccccc1F (stereo partly drawn) [Example 36, (3S)—N-[5-Chloro-2-(1H-tetrazol-1-yl)benzyl]-2-[(2-fluorophenyl)(hydroxy)acetyl]isoxazolidine-3-carboxamide] |
| 16 nM | Cc1cccc(C(O)C(=O)N2OCC[C@H]2C(=O)NCc2cc(Cl)ccc2-n2cnnn2)c1 (stereo partly drawn) [Example 37, (3S)—N-[5-Chloro-2-(1H-tetrazol-1-yl)benzyl]-2-[hydroxy(3-methylphenyl)acetyl]isoxazolidine-3-carboxamide] |
| 43 nM | CCCC[C@@H](O)C(=O)N1OCC[C@H]1C(=O)NCc1cc(Cl)ccc1-n1cnnn1 [Example 38, (3S)—N-[5-Chloro-2-(1H-tetrazol-1-yl)benzyl]-2-[(2R)-2-hydroxyhexanoyl]isoxazolidine-3-carboxamide] |
| 13 nM | CC(C)CC[C@@H](O)C(=O)N1OCC[C@H]1C(=O)NCc1cc(Cl)ccc1-n1cnnn1 [Example 39, (3S)—N-[5-Chloro-2-(1H-tetrazol-1-yl)benzyl]-2-[(2R)-2-hydroxy-5-methylhexanoyl]isoxazolidine-3-carboxamide] |
| 41 nM | O=C(NCc1cc(Cl)ccc1-n1cnnn1)[C@@H]1CCON1C(=O)[C@H](O)C1CCCC1 [Example 41, (3S)—N-[5-Chloro-2-(1H-tetrazol-1-yl)benzyl]-2-[(2R)-2-cyclopentyl-2-hydroxyacetyl]isoxazolidine-3-carboxamide] |
| 21 nM | O=C(NCc1cc(Cl)ccc1-n1cnnn1)[C@@H]1CCON1C(=O)[C@H](O)C1CCCCC1 [Example 42, (3S)—N-[5-Chloro-2-(1H-tetrazol-1-yl)benzyl]-2-[(2R)-2-cyclohexyl-2-hydroxyacetyl]isoxazolidine-3-carboxamide] |
| 68 nM | CC1(C[C@@H](O)C(=O)N2OCC[C@H]2C(=O)NCc2cc(Cl)ccc2-n2cnnn2)CC1 [Example 43, (3S)—N-[5-Chloro-2-(1H-tetrazol-1-yl)benzyl]-2-[(2R)-2-hydroxy-3-(1-methylcyclopropyl)propanoyl]isoxazolidine-3-carboxamide] |
| 80 nM | O=C(NCc1cc(Cl)ccc1-n1cnnn1)[C@@H]1CCON1C(=O)[C@H](O)Cc1ccccc1 [Example 47, (3S)—N-[5-Chloro-2-(1H-tetrazol-1-yl)benzyl]-2-[(2R)-2-hydroxy-3-phenylpropanoyl]isoxazolidine-3-carboxamide] |
| 92 nM | N#Cc1cccc(C(O)C(=O)N2OCC[C@H]2C(=O)NCc2cc(Cl)ccc2-n2cnnn2)c1 (stereo partly drawn) [Example 48, (3S)—N-[5-Chloro-2-(1H-tetrazol-1-yl)benzyl]-2-[(3-cyanophenyl)(hydroxy)acetyl]isoxazolidine-3-carboxamide] |

| SMILES | IC50 |
| --- | --- |
| O=C(NCc1cc(Cl)ccc1-n1cnnn1)[C@@H]1CC=NN1C(=O)C1(O)CCOc2ccccc21 (some centres unmarked) [Example 12] | 130 nM |
| CC(C)(C)OC[C@@H](O)C(=O)N1OCC[C@H]1C(=O)NCc1cc(Cl)ccc1-n1cnnn1 [Example 40, (3S)-2-[(2R)-3-tert-Butoxy-2-hydroxypropanoyl]-N-[5-chloro-2-(1H-tetrazol-1-yl)benzyl]isoxazolidine-3-carboxamide] | 44 nM |
